Source: patent US11434242B2, “Dopamine-b-hydroxylase inhibitors” (BIAL-PORTELA & Cª, S.A., priority 2017, dated 2022)
Marks after values point to notes of the source that are not given here.

Biological target: T1, Dopamine beta hydroxylase (Homo sapiens, UniProt P09172)
T1 construct: 125 μl of plasma; tissue Instituto Português do Sangue Transplantação; host or cells: human plasma from healthy donors
T1 sequence (P09172 40-617 limits assumed): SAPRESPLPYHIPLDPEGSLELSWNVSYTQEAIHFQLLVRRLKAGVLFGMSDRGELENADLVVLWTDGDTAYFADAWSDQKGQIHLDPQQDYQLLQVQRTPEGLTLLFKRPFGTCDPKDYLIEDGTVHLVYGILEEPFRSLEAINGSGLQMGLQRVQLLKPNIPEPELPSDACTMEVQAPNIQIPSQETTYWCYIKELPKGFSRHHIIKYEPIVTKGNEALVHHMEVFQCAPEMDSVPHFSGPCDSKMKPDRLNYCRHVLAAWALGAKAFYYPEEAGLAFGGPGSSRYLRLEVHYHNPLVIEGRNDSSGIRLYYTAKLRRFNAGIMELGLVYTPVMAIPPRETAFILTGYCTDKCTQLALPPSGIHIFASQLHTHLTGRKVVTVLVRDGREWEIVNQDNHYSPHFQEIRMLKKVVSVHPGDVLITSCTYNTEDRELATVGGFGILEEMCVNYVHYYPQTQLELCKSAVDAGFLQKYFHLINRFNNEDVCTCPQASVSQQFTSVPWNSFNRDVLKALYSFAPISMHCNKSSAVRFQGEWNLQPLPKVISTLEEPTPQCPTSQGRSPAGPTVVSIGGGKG
Assay: Dopamine beta hydroxylase activity in human plasma
Type: biochemical
Conditions: for Plasma (1 μM), activity in % of control: inhibitor 1 μM
How it was run: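 Healthy-donor human plasma pre-incubated 10 min at 37° C with compound at final 10, 100 or 1000 nM in pH 5.0 acetate buffer with ascorbate, fumarate, pargyline, N-ethylmaleimide, catalase and copper sulfate. Tyramine substrate then added for 45 min; octopamine formed was isolated by SCX cartridge, periodate-converted and read at 330 nm; activity given as % control.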

| Structure (SMILES) | Plasma (0.01 μM), activity in % of control (inhibitor 0.01 μM) | Plasma (0.1 μM), activity in % of control (inhibitor 0.1 μM) | Plasma (1 μM), activity in % of control | Plasma (0.01 μM), activity in % of control, re-test (asterisked) (inhibitor 0.01 μM, re-tested under the same experimental conditions, asterisked data believed to be correct) | Plasma (0.1 μM), activity in % of control, re-test (asterisked) (inhibitor 0.1 μM, re-tested under the same experimental conditions, asterisked data believed to be correct) |
| --- | --- | --- | --- | --- | --- |
| Cn1c(CCc2cccnc2)c2n(c1=S)C[C@@H](c1c(F)c(F)cc(F)c1F)C2 [Example 259, (R)-2-methyl-1-(2-(pyridin-3-yl)ethyl)-6-(2,3,5,6-tetrafluorophenyl)-6,7-dihydro-2H-pyrrolo[1,2-c]imidazole-3(5H)-thione] | 90.8 % of control | 76.1 % of control |  |  |  |
| O=C(Cc1[nH]c(=S)n2c1C[C@@H](c1c(F)ccc(Br)c1F)C2)NC1CCCC1=O (stereo partly drawn) [Example 34, 2-((S)-6-(3-bromo-2,6-difluorophenyl)-3-thioxo-3,5,6,7-tetrahydro-2H-pyrrolo[1,2-c]imidazol-1-yl)-N-(2-oxocyclopentyl)acetamide] |  | 10.4 % of control | 0 % of control |  |  |
| O=C(Cc1[nH]c(=S)n2c1[C@@H]1C[C@]1(c1cc(Br)ccc1F)C2)NCC1CC1 [Example 143, 2-((5aS,6aR)-5a-(5-bromo-2-fluorophenyl)-3-thioxo-2,3,5,5a,6,6a-hexahydrocyclopropa[3,4]pyrrolo[1,2-c]imidazol-1-yl)-N-(cyclopropylmethyl)acetamide] |  | 20.1 % of control | 0.2 % of control |  |  |
| CCOC(=O)Cc1[nH]c(=S)n2c1C[C@@H](c1c(F)ccc(Br)c1F)C2 [Example 59, ethyl (S)-2-(6-(3-bromo-2,6-difluorophenyl)-3-thioxo-2,5,6,7-tetrahydro-3H-pyrrolo[1,2-c]imidazol-1-yl)acetate] |  | 20.8 % of control | 4.1 % of control |  |  |
| O=C(Cc1[nH]c(=S)n2c1C[C@H](c1c(F)ccc(Br)c1F)C2)N1CCCC(O)C1 (stereo partly drawn) [Example 121, 2-((R)-6-(3-bromo-2,6-difluorophenyl)-3-thioxo-2,5,6,7-tetrahydro-3H-pyrrolo[1,2-c]imidazol-1-yl)-1-(3-hydroxypiperidin-1-yl)ethan-1-one] | 79.3 % of control | 62.6 % of control |  |  |  |
| CCOC(=O)CNC(=O)Cc1[nH]c(=S)n2c1C[C@H](c1c(F)c(F)cc(F)c1F)C2 [Example 25, Ethyl (R)-(2-(6-(2,3,5,6-tetrafluorophenyl)-3-thioxo-2,5,6,7-tetrahydro-3H-pyrrolo[1,2-c]imidazol-1-yl)acetyl)glycinate] |  | 71.3 % of control | 17.6 % of control |  |  |
| O=C(Cc1[nH]c(=S)n2c1C[C@@H](c1c(F)ccc(Br)c1F)C2)NC1CC1 [Example 94, (S)-2-(6-(3-bromo-2,6-difluorophenyl)-3-thioxo-2,5,6,7-tetrahydro-3H-pyrrolo[1,2-c]imidazol-1-yl)-N-cyclopropylacetamide] |  | 47.5 % of control | 0.8 % of control |  |  |
| CN(C(=O)Cc1[nH]c(=S)n2c1C[C@@H](c1c(F)ccc(Br)c1F)C2)C1CCOC1 (stereo partly drawn) [Example 167, 2-((S)-6-(3-bromo-2,6-difluorophenyl)-3-thioxo-2,5,6,7-tetrahydro-3H-pyrrolo[1,2-c]imidazol-1-yl)-N-methyl-N-(tetrahydrofuran-3-yl)acetamide] | 50.8 % of control | 3.2 % of control |  | 78.0* % of control | 28.0* % of control |
| Cn1c(CC(=O)N2CC[C@H](C#N)C2)c2n(c1=S)C[C@@H](c1c(F)ccc(F)c1F)C2 [Example 348, (S)-1-(2-((R)-2-methyl-3-thioxo-6-(2,3,6-trifluorophenyl)-2,5,6,7-tetrahydro-3H-pyrrolo[1,2-c]imidazol-1-yl)acetyl)pyrrolidine-3-carbonitrile] | 92.4 % of control | 44.8 % of control |  |  |  |
| O=C(Cc1[nH]c(=S)n2c1C[C@@H](c1c(F)ccc(Cl)c1F)C2)Nc1ccccn1 [Example 169, (S)-2-(6-(3-chloro-2,6-difluorophenyl)-3-thioxo-2,5,6,7-tetrahydro-3H-pyrrolo[1,2-c]imidazol-1-yl)-N-(pyridin-2-yl)acetamide] | 59.3 % of control | 17.1 % of control |  |  |  |
| Cl.Cn1c(CCNC2CCCCC2)c2n(c1=S)C[C@@]1(c3cc(Br)ccc3F)C[C@@H]21 [Example 341, (5aS,6aR)-5a-(5-bromo-2-fluorophenyl)-1-(2-(cyclohexylamino)ethyl)-2-methyl-5,5a,6,6a-tetrahydrocyclopropa[3,4]pyrrolo[1,2-c]imidazole-3(2H)-thione hydrochloride] | 91.1 % of control | 33.6 % of control |  |  |  |
| O=C(Cc1[nH]c(=S)n2c1[C@@H]1C[C@]1(c1cc(Br)ccc1F)C2)N1CCOCC1 [Example 157] | 84.2 % of control | 24.2 % of control |  |  |  |
| Cn1c(CC(=O)N[C@@H]2CCOC2)c2n(c1=S)C[C@H](c1cc(Cl)ccc1F)C2 [Example 251, 2-((S)-6-(5-chloro-2-fluorophenyl)-2-methyl-3-thioxo-2,5,6,7-tetrahydro-3H-pyrrolo[1,2-c]imidazol-1-yl)-N—((R)-tetrahydrofuran-3-yl)acetamide] | 80.0 % of control | 36.0 % of control |  |  |  |
| CN1CC(NC(=O)Cc2c3n(c(=S)n2C)C[C@H](c2c(F)ccc(Br)c2F)C3)CCC1=O (stereo partly drawn) [Example 457, 2-((S)-6-(3-bromo-2,6-difluorophenyl)-2-methyl-3-thioxo-2,5,6,7-tetrahydro-3H-pyrrolo[1,2-c]imidazol-1-yl)-N-(1-methyl-6-oxopiperidin-3-yl)acetamide] | 42.1 % of control | 7.3 % of control |  |  |  |
| Cl.Fc1cc(F)c(F)c([C@H]2Cc3c(CN4CCCC4)[nH]c(=S)n3C2)c1F [Example 210, (R)-1-(pyrrolidin-1-ylmethyl)-6-(2,3,5,6-tetrafluorophenyl)-2,5,6,7-tetrahydro-3H-pyrrolo[1,2-c]imidazole-3-thione hydrochloride] | 94.6 % of control | 73.5 % of control |  |  |  |
| CC(C)NC(=O)Cc1[nH]c(=S)n2c1C[C@@H](c1c(F)ccc(Cl)c1F)C2 [Example 88, (S)-2-(6-(3-chloro-2,6-difluorophenyl)-3-thioxo-2,5,6,7-tetrahydro-3H-pyrrolo[1,2-c]imidazol-1-yl)-N-isopropylacetamide] |  | 44.1 % of control | 6.1 % of control |  |  |
| Cn1c(CC(=O)N2CCOCC2)c2n(c1=S)C[C@@]1(c3c(F)ccc(Cl)c3F)C[C@@H]21 [Example 421, 2-((5aS,6aR)-5a-(3-chloro-2,6-difluorophenyl)-2-methyl-3-thioxo-2,3,5,5a,6,6a-hexahydrocyclopropa[3,4]pyrrolo[1,2-c]imidazol-1-yl)-1-morpholinoethan-1-one] | 26.1 % of control | 5.8 % of control |  |  |  |
| Cn1c(CC(=O)N2CCCC2)c2n(c1=S)C[C@@]1(c3cc(Cl)ccc3F)C[C@@H]21 [Example 309, 2-((5aS,6aR)-5a-(5-chloro-2-fluorophenyl)-2-methyl-3-thioxo-2,3,5,5a,6,6a-hexahydrocyclopropa[3,4]pyrrolo[1,2-c]imidazol-1-yl)-1-(pyrrolidin-1-yl)ethan-1-one] | 86.2 % of control | 38.8 % of control |  |  |  |
| Cn1c(CC(=O)N[C@H]2CC[C@H](O)CC2)c2n(c1=S)C[C@@]1(c3cc(Cl)ccc3F)C[C@@H]21 [Example 355, 2-((5aS,6aR)-5a-(5-chloro-2-fluorophenyl)-2-methyl-3-thioxo-2,3,5,5a,6,6a-hexahydrocyclopropa[3,4]pyrrolo[1,2-c]imidazol-1-yl)-N-((1r,4R)-4-hydroxycyclohexyl)acetamide] | 56.4 % of control | 14.0 % of control |  |  |  |
| O=C(Cc1[nH]c(=S)n2c1C[C@H](c1cc(Cl)ccc1F)C2)N[C@@H]1CCOC1 [Example 75, 2-((R)-6-(5-chloro-2-fluorophenyl)-3-thioxo-2,5,6,7-tetrahydro-3H-pyrrolo[1,2-c]imidazol-1-yl)-N—((R)-tetrahydrofuran-3-yl)acetamide] |  | 91.0 % of control | 56.3 % of control |  |  |
| O=C(NCc1[nH]c(=S)n2c1C[C@@H](c1c(F)ccc(Cl)c1F)C2)C1CC1 [Example 220, (S)—N-((6-(3-chloro-2,6-difluorophenyl)-3-thioxo-3,5,6,7-tetrahydro-2H-pyrrolo[1,2-c]imidazol-1-yl)methyl)cyclopropanecarboxamide] | 76.5 % of control | 17.7 % of control |  |  |  |
